Measurements from the supplement of paper PMC10307832.

What was measured:
Test in all cases: relative viability (nuclei count vs DMSO), 5 days (fraction); higher = more cells survive
[1] = test system: EKVX
How it was run: (§1)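 Lung cancer cell lines, seeded in 1536-well plates, were treated the following day by pin tool with a single drug or with five library-drug doses (not always all listed) in √10 steps on top of a fixed anchor-drug dose. Cells were fixed and nuclei stained in one step after 5 days, and nuclei were counted. Relative viability is the nuclei count for treated wells divided by that for vehicle wells, reported as medians of duplicate plates.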

[2] = test system: NCI-H1993
How it was run: as §1

[3] = test system: NCI-H838
How it was run: as §1

[4] = test system: BEN
How it was run: as §1

[5] = test system: NCI-H1666
How it was run: as §1

[6] = test system: PC-3 [JPC-3]
How it was run: as §1

[7] = test system: LC-2-ad
How it was run: as §1

[8] = test system: NCI-H460
How it was run: as §1

[9] = test system: LCLC-97TM1
How it was run: as §1

[10] = test system: SW 1573
How it was run: as §1

[11] = test system: LU99A
How it was run: as §1

[12] = test system: NCI-H1355; settings: first compound 0.08 µM
How it was run: as §1

## O=c1[nH]c2ccccc2n1C1CCN(CCCC(c2ccc(F)cc2)c2ccc(F)cc2)CC1 [Pimozide] + CC1(C)CCC(c2ccc(Cl)cc2)=C(CN2CCN(c3ccc(C(=O)NS(=O)(=O)c4ccc(N[C@H](CCN5CCOCC5)CSc5ccccc5)c(S(=O)(=O)C(F)(F)F)c4)cc3)CC2)C1 [Navitoclax] (partner 0.5 µM)
[1]; first compound 0.253 µM
  relative viability: 0.936
[1]; first compound 0.8 µM
  relative viability: 0.881
[1]; first compound 2.53 µM
  relative viability: 0.89
[1]; first compound 8 µM
  relative viability: 0.946
[2]; first compound 0.08 µM
  relative viability: 0.797
[2]; first compound 0.253 µM
  relative viability: 0.826
[2]; first compound 0.8 µM
  relative viability: 0.91
[2]; first compound 2.53 µM
  relative viability: 0.933
[2]; first compound 8 µM
  relative viability: 0.806
[3]; first compound 0.08 µM
  relative viability: 1.18
[3]; first compound 0.253 µM
  relative viability: 1.12
[3]; first compound 0.8 µM
  relative viability: 1.01
[3]; first compound 2.53 µM
  relative viability: 1.11
[3]; first compound 8 µM
  relative viability: 1.16
[4]; first compound 0.08 µM
  relative viability: 0.0678
[4]; first compound 0.253 µM
  relative viability: 0.06
[4]; first compound 0.8 µM
  relative viability: 0.0809
[4]; first compound 2.53 µM
  relative viability: 0.0665
[4]; first compound 8 µM
  relative viability: 0.0584
[5]; first compound 0.08 µM
  relative viability: 0.824
[5]; first compound 0.253 µM
  relative viability: 1.01
[5]; first compound 0.8 µM
  relative viability: 1.04
[5]; first compound 2.53 µM
  relative viability: 0.846
[5]; first compound 8 µM
  relative viability: 0.5
[6]; first compound 0.253 µM
  relative viability: 0.73
[6]; first compound 0.8 µM
  relative viability: 0.798
[6]; first compound 2.53 µM
  relative viability: 0.761
[6]; first compound 8 µM
  relative viability: 0.732
[7]; first compound 0.08 µM
  relative viability: 0.498
[7]; first compound 0.253 µM
  relative viability: 0.509
[7]; first compound 0.8 µM
  relative viability: 0.286
[7]; first compound 2.53 µM
  relative viability: 0.421
[7]; first compound 8 µM
  relative viability: 0.392
[8]; first compound 0.08 µM
  relative viability: 1.19
[8]; first compound 0.253 µM
  relative viability: 1.12
[8]; first compound 0.8 µM
  relative viability: 1.06
[8]; first compound 2.53 µM
  relative viability: 1.06
[8]; first compound 8 µM
  relative viability: 0.957
[9]; first compound 0.08 µM
  relative viability: 0.527
[9]; first compound 0.253 µM
  relative viability: 0.489
[9]; first compound 0.8 µM
  relative viability: 0.215
[9]; first compound 2.53 µM
  relative viability: 0.415
[9]; first compound 8 µM
  relative viability: 0.402
[10]; first compound 0.08 µM
  relative viability: 0.92
[10]; first compound 0.253 µM
  relative viability: 1.04
[10]; first compound 0.8 µM
  relative viability: 0.799
[10]; first compound 2.53 µM
  relative viability: 1.02
[10]; first compound 8 µM
  relative viability: 0.796
[11]; first compound 0.08 µM
  relative viability: 0.794
[11]; first compound 0.253 µM
  relative viability: 0.772
[11]; first compound 0.8 µM
  relative viability: 0.716
[11]; first compound 2.53 µM
  relative viability: 0.875
[11]; first compound 8 µM
  relative viability: 0.806
[12]
  relative viability: 0.849
